# Measurements taken from PubChem BioAssay (NCI).
#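 Values below derive from 48-hour exposures of cells grown in 96-well plates, with endpoints linearly interpolated between the two concentrations bracketing the appropriate inhibition level. The concentration for 50% growth inhibition is given as GI50. The concentration for full growth arrest is given as TGI.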
# Assays:
# Assay in all cases: NCI tumour cell line growth inhibition, 48 h
# [1] = test system: SF-539 CNS
# [2] = test system: RXF 393 renal
# [3] = test system: 786-0 renal
# [4] = test system: RPMI-8226 leukemia
# [5] = test system: SR leukemia
# [6] = test system: OVCAR-3 ovarian
# [7] = test system: BT-549 breast
# [8] = test system: HS 578T breast
# [9] = test system: SF-268 CNS
# [10] = test system: NCI/ADR-RES ovarian
# [11] = test system: HOP-92 NSCLC
# [12] = test system: A498 renal
# [13] = test system: MDA-MB-231 breast
# [14] = test system: NCI-H226 lung
# [15] = test system: SN12C renal
# [16] = test system: UACC-62 melanoma
# [17] = test system: IGROV1 ovarian
# [18] = test system: SK-MEL-28 melanoma
# [19] = test system: UO-31 renal
# [20] = test system: NCI-H522 lung
# [21] = test system: SK-MEL-5 melanoma
# [22] = test system: K-562 leukemia
# [23] = test system: UACC-257 melanoma
# [24] = test system: MOLT-4 leukemia
# [25] = test system: HCC-2998 colon
# [26] = test system: MCF7 breast
# [27] = test system: KM12 colon
# [28] = test system: CCRF-CEM leukemia
# [29] = test system: CAKI-1 renal
# [30] = test system: M14 melanoma
# [31] = test system: SK-OV-3 ovarian
# [32] = test system: SNB-19 CNS
# [33] = test system: SW-620 colon
# [34] = test system: HCT-116 colon
# [35] = test system: MALME-3M melanoma
# [36] = test system: A549 NSCLC
# [37] = test system: NCI-H23 lung
# [38] = test system: T-47D breast
# [39] = test system: OVCAR-5 ovarian
# [40] = test system: COLO 205 colon
# [41] = test system: TK-10 renal
# [42] = test system: HCT-15 colon
# [43] = test system: NCI-H460 lung
# [44] = test system: HL-60(TB) leukemia
# [45] = test system: SF-295 CNS
# [46] = test system: SK-MEL-2 melanoma
# [47] = test system: SNB-75 CNS
# [48] = test system: OVCAR-8 ovarian
# [49] = test system: HOP-62 NSCLC
# [50] = test system: ACHN renal
# [51] = test system: DU-145 prostate
# [52] = test system: MDA-MB-435
# [53] = test system: PC-3 prostate
# [54] = test system: LOX IMVI melanoma
# [55] = test system: HT29 colon
# [56] = test system: EKVX NSCLC
# [57] = test system: U251 CNS
# [58] = test system: OVCAR-4 ovarian
structure (smiles),measurement,setting,value
COc1ccc(C2CC(c3cccc(Nc4ccnc5cc(Cl)ccc45)c3)=NN2c2ccccc2)cc1 (configuration not stated),GI50,[1],1.15 µM
same,TGI,[1],3.25 µM
same,GI50,[2],8.91 µM
same,TGI,[2],49.7 µM
same,GI50,[3],3.95 µM
same,TGI,[3],> 100 µM
same,GI50,[4],1.27 µM
same,TGI,[4],22.8 µM
same,GI50,[5],1.17 µM
same,TGI,[5],8.52 µM
same,GI50,[6],3.2 µM
same,TGI,[6],> 100 µM
same,GI50,[7],7.42 µM
same,TGI,[7],39.2 µM
same,GI50,[8],6.79 µM
same,TGI,[8],73.2 µM
same,GI50,[9],4.19 µM
same,TGI,[9],> 100 µM
same,GI50,[10],1.51 µM
same,TGI,[10],26.4 µM
same,GI50,[11],3.93 µM
same,TGI,[11],47.6 µM
same,GI50,[12],2.87 µM
same,TGI,[12],81.2 µM
same,GI50,[13],1.31 µM
same,TGI,[13],29.2 µM
same,GI50,[14],11.3 µM
same,TGI,[14],63.8 µM
same,GI50,[15],7.19 µM
same,TGI,[15],> 100 µM
same,GI50,[16],0.051 µM
same,TGI,[16],11.7 µM
same,GI50,[17],11.6 µM
same,TGI,[17],> 100 µM
same,GI50,[18],4.41 µM
same,TGI,[18],32.5 µM
same,GI50,[19],0.478 µM
same,TGI,[19],21.6 µM
same,GI50,[20],0.952 µM
same,TGI,[20],13.8 µM
same,GI50,[21],1.46 µM
same,TGI,[21],4.76 µM
same,GI50,[22],0.492 µM
same,TGI,[22],32.3 µM
same,GI50,[23],1.36 µM
same,TGI,[23],31.4 µM
same,GI50,[24],0.432 µM
same,TGI,[24],27.6 µM
same,GI50,[25],0.535 µM
same,TGI,[25],11.5 µM
same,GI50,[26],1.52 µM
same,TGI,[26],27.4 µM
same,GI50,[27],0.226 µM
same,TGI,[27],19.6 µM
same,GI50,[28],0.546 µM
same,TGI,[28],37.9 µM
same,GI50,[29],0.681 µM
same,TGI,[29],> 100 µM
same,GI50,[30],0.331 µM
same,TGI,[30],15.4 µM
same,GI50,[31],9.62 µM
same,TGI,[31],76.5 µM
same,GI50,[32],6.9 µM
same,TGI,[32],> 100 µM
same,GI50,[33],0.277 µM
same,TGI,[33],14.4 µM
same,GI50,[34],1.12 µM
same,TGI,[34],18.7 µM
same,GI50,[35],10.7 µM
same,TGI,[35],42.7 µM
same,GI50,[36],2 µM
same,TGI,[36],> 100 µM
same,GI50,[37],8.78 µM
same,TGI,[37],59.7 µM
same,GI50,[38],0.171 µM
same,TGI,[38],20 µM
same,GI50,[39],11.8 µM
same,TGI,[39],61.7 µM
same,GI50,[40],1.43 µM
same,TGI,[40],8.66 µM
same,GI50,[41],3.76 µM
same,TGI,[41],97.2 µM
same,GI50,[42],0.335 µM
same,TGI,[42],14.7 µM
same,GI50,[43],0.418 µM
same,TGI,[43],12.2 µM
same,GI50,[44],0.282 µM
same,TGI,[44],17.5 µM
same,GI50,[45],1.62 µM
same,TGI,[45],16.4 µM
same,GI50,[46],2.07 µM
same,TGI,[46],10.4 µM
same,GI50,[47],3.34 µM
same,TGI,[47],49.1 µM
same,GI50,[48],2.85 µM
same,TGI,[48],38.8 µM
same,GI50,[49],0.949 µM
same,TGI,[49],21.3 µM
same,GI50,[50],3.5 µM
same,TGI,[50],33.2 µM
same,GI50,[51],14 µM
same,TGI,[51],> 100 µM
same,GI50,[52],0.219 µM
same,TGI,[52],2.92 µM
same,GI50,[53],0.453 µM
same,TGI,[53],95.3 µM
same,GI50,[54],0.338 µM
same,TGI,[54],11.1 µM
N#CC1=C(N)Oc2c(sc3c(F)cccc23)C1c1ccc(Cl)cc1 (configuration not stated),GI50,[1],2.05 µM
same,TGI,[1],5.59 µM
same,GI50,[2],1.92 µM
same,TGI,[2],6 µM
same,GI50,[3],3.15 µM
same,TGI,[3],11.1 µM
same,GI50,[4],2.91 µM
same,TGI,[4],12.8 µM
same,GI50,[5],1.6 µM
same,TGI,[5],13.4 µM
same,GI50,[6],2.6 µM
same,TGI,[6],7.44 µM
same,GI50,[7],3.6 µM
same,TGI,[7],22.5 µM
same,GI50,[8],2.63 µM
same,TGI,[8],15.5 µM
same,GI50,[55],3.17 µM
same,TGI,[55],11.5 µM
same,GI50,[9],4.32 µM
same,TGI,[9],31.2 µM
same,GI50,[10],2.09 µM
same,TGI,[10],6.68 µM
same,GI50,[11],3.71 µM
same,TGI,[11],19.2 µM
same,GI50,[12],2.57 µM
same,TGI,[12],11.2 µM
same,GI50,[13],3.46 µM
same,TGI,[13],16.2 µM
same,GI50,[14],12.7 µM
same,TGI,[14],34.8 µM
same,GI50,[15],4.33 µM
same,TGI,[15],16.2 µM
same,GI50,[16],3.26 µM
same,TGI,[16],17.5 µM
same,GI50,[17],3.43 µM
same,TGI,[17],17.1 µM
same,GI50,[18],5.86 µM
same,TGI,[18],28.2 µM
same,GI50,[56],4 µM
same,TGI,[56],21.7 µM
same,GI50,[19],2.49 µM
same,TGI,[19],11.5 µM
same,GI50,[20],1.93 µM
same,TGI,[20],11.7 µM
same,GI50,[21],3.68 µM
same,TGI,[21],15.1 µM
same,GI50,[22],1.28 µM
same,TGI,[22],16.3 µM
same,GI50,[23],11.7 µM
same,TGI,[23],> 100 µM
same,GI50,[57],3.13 µM
same,TGI,[57],11.6 µM
same,GI50,[24],2.93 µM
same,TGI,[24],10.5 µM
same,GI50,[25],7.25 µM
same,TGI,[25],22.6 µM
same,GI50,[26],1.85 µM
same,TGI,[26],12 µM
same,GI50,[27],2.75 µM
same,TGI,[27],18.9 µM
same,GI50,[28],2.99 µM
same,TGI,[28],12.1 µM
same,GI50,[30],2.19 µM
same,TGI,[30],6.57 µM
same,GI50,[31],5.16 µM
same,TGI,[31],20 µM
same,GI50,[32],3.32 µM
same,TGI,[32],16.3 µM
same,GI50,[33],3.47 µM
same,TGI,[33],16.3 µM
same,GI50,[34],3.7 µM
same,TGI,[34],13.9 µM
same,GI50,[35],6.85 µM
same,TGI,[35],26.3 µM
same,GI50,[36],4.24 µM
same,TGI,[36],17.5 µM
same,GI50,[37],3.37 µM
same,TGI,[37],16.2 µM
same,GI50,[38],3.43 µM
same,TGI,[38],25.3 µM
same,GI50,[39],10.2 µM
same,TGI,[39],34 µM
same,GI50,[40],2.31 µM
same,TGI,[40],6.15 µM
same,GI50,[41],8.38 µM
same,TGI,[41],24.3 µM
same,GI50,[42],2.75 µM
same,TGI,[42],13.1 µM
same,GI50,[43],3.38 µM
same,TGI,[43],11.8 µM
same,GI50,[44],2.69 µM
same,TGI,[44],8.3 µM
same,GI50,[45],2.74 µM
same,TGI,[45],9.5 µM
same,GI50,[58],4.21 µM
same,TGI,[58],19.6 µM
same,GI50,[46],3.49 µM
same,TGI,[46],15.5 µM
same,GI50,[47],2.27 µM
same,TGI,[47],10 µM
same,GI50,[48],4.4 µM
same,TGI,[48],18.7 µM
same,GI50,[49],2.99 µM
same,TGI,[49],15.7 µM
same,GI50,[50],4.62 µM
same,TGI,[50],19.3 µM
same,GI50,[51],3.49 µM
same,TGI,[51],12.9 µM
same,GI50,[52],0.616 µM
same,TGI,[52],2.7 µM
same,GI50,[53],2.72 µM
same,TGI,[53],12.9 µM
same,GI50,[54],3.06 µM
same,TGI,[54],11.8 µM
